The target of assay [1] is T1, Recombinant STAT3 protein (STAT3 (G127-I722)) (Homo sapiens, UniProt P40763).
T1 construct: Recombinant STAT3 protein (STAT3 (G127-I722))
Nature of the assay: STAT3 Fluorescence Polarization (FP) Assay. The note with it: probe 5-FAM-GpYLPQTV-NH2 2 nM, 45-minute incubation. It is filed as binding. The procedure:
STAT3 Fluorescence Polarization (FP) Assay
An FP assay was developed to determine IC50 values for test substances. Recombinant STAT3 protein (STAT3 (G127-I722)) at 25 nM was combined with a fluorescently labeled, phosphotyrosine peptide probe (5-FAM-GpYLPQTV-NH2) at 2 nM in FP buffer (10 mM HEPES pH 7.4, 50 mM NaCl, 1 mM EDTA, 0.05% Tween 20.2 mM DTT). 50 μL of STAT3-probe mixture was added to serial diluted compounds in black, 96-well plates (Greiner BioOne 655076) to a final concentration of 1% DMSO. Reaction components were mixed, and FP was measured after 45-minute incubation at room temperature using a Tecan Spark multimode plate reader. FP signal (mP) was plotted against the log concentration of the test substances and IC50 values were calculated by nonlinear regression analysis using GraphPad Prism software. For STAT3 FP assay, A=≤100 nM; B=>100-1000 nM; C=>1-10 μM; and D=>10 μM.
A general note: In fluorescence polarisation assays a small probe gives low polarisation when free and higher when bound to something large.

Assay [2] concerns the target T2, Recombinant STAT6 protein (STAT6 (W123-T658)) (Homo sapiens, UniProt P42226).
T2 construct: Recombinant STAT6 protein (STAT6 (W123-T658))
T2 sequence (P42226 123-658): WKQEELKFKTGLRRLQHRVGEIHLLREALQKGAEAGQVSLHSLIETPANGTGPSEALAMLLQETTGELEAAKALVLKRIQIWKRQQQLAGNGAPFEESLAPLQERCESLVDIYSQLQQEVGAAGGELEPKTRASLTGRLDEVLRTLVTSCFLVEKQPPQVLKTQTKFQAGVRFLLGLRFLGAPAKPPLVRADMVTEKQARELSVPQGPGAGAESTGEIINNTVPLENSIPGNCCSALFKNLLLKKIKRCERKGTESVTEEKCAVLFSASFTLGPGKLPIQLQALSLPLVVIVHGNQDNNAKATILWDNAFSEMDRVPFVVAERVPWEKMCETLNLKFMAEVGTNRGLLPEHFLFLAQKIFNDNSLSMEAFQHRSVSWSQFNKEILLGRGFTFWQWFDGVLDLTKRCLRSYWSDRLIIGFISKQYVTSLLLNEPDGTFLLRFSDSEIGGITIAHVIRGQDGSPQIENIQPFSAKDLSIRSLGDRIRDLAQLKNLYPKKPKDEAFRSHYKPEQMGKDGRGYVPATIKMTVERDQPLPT
Nature of the assay: STAT6 Fluorescence Polarization (FP) Assay. The format is binding. The note with it: probe 5-FAM-Ap[…]-NH2 2 nM, 45-minute incubation. The procedure: STAT6 Fluorescence Polarization (FP) Assay
An FP assay was developed to determine IC50 values for test substances. Recombinant STAT6 protein (STAT6 (W123-T658)) at 250 nM was combined with a fluorescently labeled, phosphotyrosine peptide probe (5-FAM-Ap[…]-NH2) at 2 nM in FP buffer (10 mM HEPES pH 7.4, 50 mM NaCl, 1 mM EDTA, 0.05% Tween 20, 2 mM DTT). 50 μL of STAT6-probe mixture was added to serial diluted compounds in black, 96-well plates (Greiner BioOne 655076) to a final concentration of 1% DMSO. Reaction components were mixed, and FP was measured after 45-minute incubation at room temperature using a Tecan Spark multimode plate reader. FP signal (mP) was plotted against the log concentration of the test substances and IC50 values were calculated by nonlinear regression analysis using GraphPad Prism software. For STAT6 FP assay, A=≤300 nM; B=>300-3000 nM; C=>3-30 μM; and D=>30 μM.

The mark [3] stands for this setting: STAT3 25 nM, read-out: STAT3 (FP assay IC50).
[4] abbreviates: STAT6 250 nM, read-out: STAT6 (FP assay IC50).
Where [5] appears, read: STAT3 (G127-I722) 25 nM, read-out: STAT3 (FP assay IC50 class).
Where [6] appears, read: STAT6 (W123-T658) 250 nM, read-out: STAT6 (FP assay IC50 class).

12 compounds from patent US20250215029A1 (Recludix Pharma, Inc., priority 2022, published 2025) can be followed below.

Where two headings read alike, the source gives them in different places. Some results are limits rather than exact numbers.

T1 sequence (P40763 127-722): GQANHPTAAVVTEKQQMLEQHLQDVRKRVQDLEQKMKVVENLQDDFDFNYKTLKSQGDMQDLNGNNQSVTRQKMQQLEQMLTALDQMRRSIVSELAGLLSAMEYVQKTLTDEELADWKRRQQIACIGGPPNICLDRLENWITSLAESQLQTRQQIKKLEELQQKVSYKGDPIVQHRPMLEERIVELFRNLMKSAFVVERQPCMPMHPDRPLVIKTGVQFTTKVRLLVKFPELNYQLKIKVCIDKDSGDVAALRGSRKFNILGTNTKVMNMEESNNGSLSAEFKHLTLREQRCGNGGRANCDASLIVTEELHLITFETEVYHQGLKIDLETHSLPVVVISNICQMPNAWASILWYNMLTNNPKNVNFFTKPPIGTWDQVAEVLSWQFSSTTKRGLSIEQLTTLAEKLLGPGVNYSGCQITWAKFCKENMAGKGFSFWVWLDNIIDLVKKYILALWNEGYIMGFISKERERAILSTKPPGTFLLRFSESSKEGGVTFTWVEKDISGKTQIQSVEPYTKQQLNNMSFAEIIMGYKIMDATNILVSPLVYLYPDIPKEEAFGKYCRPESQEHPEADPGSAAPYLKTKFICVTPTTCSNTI

As for `N#C[C@H]1CN(C(=O)[C@@H]2CC[C@@H]3CC[C@@H](N4CCC4)C[C@H](NC(=O)c4cc5cc(C(F)(F)P(=O)(O)O)ccc5s4)C(=O)N32)C[C@@H]1c1ccccc1` (mixture of isomers) [Compound 23, ((2-(((3S,6S,8R,10aS)-8-(azetidin-1-yl)-3-(rel- trans)-3-cyano-4-phenylpyrrolidine-1-carbonyl)-5-oxodecahydropyrrolo [1,2-a]azocin-6-yl)carbamoyl)benzo[b]thiophen-5-yl)difluoromethyl) phosphonic acid], the IC50 in assay [1] (setting [3]) is 1000 to 10000 nM; in assay [2] (setting [4]) it was 300 to 3000 nM.
The corresponding values for `N#C[C@H]1CN(C(=O)[C@@H]2CC[C@@H]3CCCC[C@H](NC(=O)c4ccc5ccc(C(F)(F)P(=O)(O)O)cc5c4)C(=O)N32)C[C@@H]1c1ccccc1` (mixture of isomers) [Compound 28, ((7-(((3S,6S,10aS)-3-(rel- trans)-3-cyano-4-phenylpyrrolidine-1-carbonyl)-5-oxodecahydropyrrolo [1,2-a]azocin-6-yl)carbamoyl)naphthalen-2-yl) difluoromethyl) phosphonic acid] are 1000 to 10000 nM and at most 300 nM.
The corresponding values for `N#C[C@@H]1CN(C(=O)[C@@H]2CC[C@@H]3CCCCC[C@H](NC(=O)c4cc5cc(C(F)(F)P(=O)(O)O)ccc5s4)C(=O)N32)C[C@H]1c1ccccc1` (mixture of isomers) [Compound 74, ((2-(((3S,6S,11aS)-3-((rel- trans)-3-cyano-4-phenylpyrrolidine-1-carbonyl)-5-oxodecahydro-1H-pyrrolo[1,2-a]azonin-6-yl)carbamoyl)benzo[b]thiophen-5-yl)difluoromethyl) phosphonic acid] are 1000 to 10000 nM and at most 300 nM.
For `N#CC1CN(C(=O)[C@@H]2C[C@@H](O)[C@@H]3C/C=C\C[C@H](NC(=O)c4cc5cc(C(F)(F)P(=O)(O)O)ccc5s4)C(=O)N23)CC1c1ccccc1` (mixture of isomers) [Compound 729, ((2-(((1R,3S,6S,10aS,Z)-3-((rel-trans)-3-cyano-4-phenylpyrrolidine-1-carbonyl)-1-hydroxy-5-oxo-1,2,3,5,6,7,10,10a-octahydropyrrolo[1,2-a]azocin-6-yl)carbamoyl)benzo [b]thiophen-5-yl)difluoromethyl) phosphonic acid], the results for the IC50 in assay [1] (setting [5]) and in assay [2] (setting [6]) were 100 to 1000 nM and at most 300 nM, respectively.
For `O=C(NC1CCCCC2CCC(C(=O)N3CC(O)C(n4ccnn4)C3)N2C1=O)c1ccc2ccc(C(F)(F)P(=O)(O)O)cc2c1` (mixture of isomers) [Compound 871, (difluoro(7-(((3S,6S,10aS)-3-((rel-trans)-3-hydroxy-4-(1H-1,2,3-triazol-1-yl)pyrrolidine-1-carbonyl)-5-oxodecahydropyrrolo[1,2-a]azocin-6-yl)carbamoyl)naphthalen-2-yl)methyl) phosphonic acid] the same measures were 1000 to 10000 nM and 300 to 3000 nM.
For `COc1cc(C2CN(C(=O)C3CCC4CCCCC(NC(=O)c5cc6cc(C(F)(F)P(=O)(O)O)ccc6s5)C(=O)N43)CC2C#N)cc(C)n1` (mixture of isomers) [Compound 874, ((2-(((3S,6S,10aS)-3-((rel-trans)-3-cyano-4-(2-methoxy-6-methylpyridin-4-yl)pyrrolidine-1-carbonyl)-5-oxodecahydropyrrolo[1,2-a]azocin-6-yl)carbamoyl)benzo [b]thiophen-5-yl)difluoromethyl) phosphonic acid] the same measures were 1000 to 10000 nM and 300 to 3000 nM.
In the case of `N#C[C@@H]1CN(C(=O)[C@@H]2CCC[C@@H]3CCCC[C@H](NC(=O)c4cc5cc(C(F)(F)P(=O)(O)O)ccc5s4)C(=O)N32)CC1c1ccccc1` (mixture of isomers) [Compound 63, ((2-(((4S,7S,11aS)-4-(rel-(trans)-3-cyano-4-phenylpyrrolidine-1-carbonyl)-6-oxodecahydro-2H-pyrido[1,2-a]azocin-7-yl)carbamoyl)benzo[b]thiophen-5-yl)difluoromethyl) phosphonic acid], the IC50 in assay [1] (setting [3]) is 100 to 1000 nM; in assay [2] (setting [4]) it was at most 300 nM.
For `N#C[C@H]1CN(C(=O)[C@@H]2CC[C@@H]3CCCCC[C@H](NC(=O)c4cc5cc(C(F)(F)P(=O)(O)O)ccc5s4)C(=O)N32)C[C@@H]1c1ccccc1` (racemic) [Compound 75, ((2-(((3S,6S,11aS)-3-(rel-(trans)-3-cyano-4-phenylpyrrolidine-1-carbonyl)-5-oxodecahydro-1H-pyrrolo[1,2-a]azonin-6-yl)carbamoyl)benzo[b]thiophen-5-yl)difluoromethyl) phosphonic acid] the same measures were 1000 to 10000 nM and at most 300 nM.
For `N#C[C@H]1CN(C(=O)[C@@H]2CC[C@@H]3CCCC[C@H](NC(=O)c4cc5cc(C(F)(F)P(=O)(O)O)ccc5s4)C(=O)N32)C[C@@H]1CC1CCOCC1` (racemic) [Compound 88, ((2-(((3S,6S,10aS)-3-(rel-(trans)-3-cyano-4-((tetrahydro-2H-pyran-4-yl)methyl)pyrrolidine-1-carbonyl)-5-oxodecahydropyrrolo [1,2-a]azocin-6-yl)carbamoyl)benzo[b]thiophen-5-yl)difluoromethyl) phosphonic acid] the same measures were 1000 to 10000 nM and 300 to 3000 nM.
The corresponding values for `N#C[C@H]1CN(C(=O)[C@@H]2CC[C@@H]3CCCC[C@H](NC(=O)c4cc5cc(C(F)(F)P(=O)(O)O)ccc5s4)C(=O)N32)C[C@@H]1C1CCCCC1` (racemic) [Compound 91, ((2-(((3S,6S,10aS)-3-(rel-(trans)-3-cyano-4-cyclohexyl-pyrrolidine-1-carbonyl)-5-oxodecahydropyrrolo [1,2-a]azocin-6-yl)carbamoyl)benzo[b]thiophen-5-yl)difluoromethyl) phosphonic acid] are 1000 to 10000 nM and at most 300 nM.
`N#C[C@H]1CN(C(=O)[C@@H]2CC[C@@H]3CCCC[C@H](NC(=O)c4cc5cc(C(F)(F)P(=O)(O)O)ccc5s4)C(=O)N32)C[C@@H]1c1ccc2cn[nH]c2c1` (racemic) [Compound 99, ((2-(((3S,6S,10aS)-3-(rel-(trans)-3-cyano-4-(1H-indazol-6-yl)pyrrolidine-1-carbonyl)-5-oxodecahydropyrrolo [1,2-a]azocin-6-yl)carbamoyl)benzo[b]thiophen-5-yl)difluoromethyl) phosphonic acid]: the IC50 in assay [1] (setting [3]) is 100 to 1000 nM; in assay [2] (setting [4]), 300 to 3000 nM.
For `COc1cccc([C@H]2CN(C(=O)[C@@H]3CC[C@@H]4CCCC[C@H](NC(=O)c5cc6cc(C(F)(F)P(=O)(O)O)ccc6s5)C(=O)N43)C[C@@H]2C#N)n1` (racemic) [Compound 105, ((2-(((3S,6S,10aS)-3-(rel-(trans) 3-cyano-4-(6-methoxypyridin-2-yl)pyrrolidine-1-carbonyl)-5-oxodecahydropyrrolo [1,2-a]azocin-6-yl)carbamoyl)benzo[b]thiophen-5-yl)difluoromethyl) phosphonic acid] the same measures were 100 to 1000 nM and at most 300 nM.

Usually IC50 stands for the point on the concentration scale where inhibition reaches its midpoint.
